Like-named read-outs stand apart in the source and are kept apart here.
Legend:
[1] = in vitro
Description: Equilibrium dialysis was performed to measure the plasma unbound fraction of the drugs studied, and to measure possible differences in the plasma protein binding between hMDR1 and C57BL/6 WT mice. A high throughput, 96 well equilibrium dialysis apparatus (Model HTD96b, HTDialysis, Connecticut, USA) with dialysis membrane strips with a molecular weight cut-off of 12–14 kDa was used. The concentrations of the substances were the same as those achieved in plasma during the in vivo experiments. One side of each well used was loaded with 125 μl of plasma spiked with drug and the other side was loaded with 125 μl phosphate buffer saline (PBS). The top surface of the Teflon block was then sealed with an adhesive film. […] Triplicates of the same concentration for each compound were measured. After the incubation period 80 μl from the buffer side was added into 80 μl of blank mouse plasma and 80 μl from the plasma was added into 80 μl of PBS. Samples were stored at -20 until analysis.

[2] = test system: human P-gp (hMDR1); settings: mouse, in vivo
[3] = biological target: T1, P-gp (Mus musculus, UniProt P21447); settings: in vivo
Description: Brain to plasma total concentration ratios (Kp) of the substances were measured for each animal. Unbound volume of distribution in brain (Vu, brain) was measured with the brain slice method [14] and fraction unbound in plasma (fu, p) was measured with high throughput equilibrium dialysis.
All the substances were administered subcutaneously except docetaxel, which was given intravenously in the tail vein as a slow injection over five minutes due to its tissue irritating character. […] The volume administered of all substances was 0.01 ml/g_body weight.
Blood was collected with a pre-heparinized syringe by cardiac puncture and was centrifuged for 5 minutes at 10000 rpm to obtain plasma. Brain was also sampled. The brain was divided in two equal parts and frozen on dry ice before weighed. All the samples were stored at -80°C until analysis.
(§1) The total brain concentration (ng/g brain tissue) of the substance was divided with the total plasma concentration (ng/ml) of the substance to obtain the tissue partition ratio (Kp), which was compared between the groups of mice. […] The the fraction unbound in plasma (fu, p) measured with equilibrium dialysis was used in the calculations.

[4] = C57BL/6, mouse, 5 h, 200 nM
[5] = biological target: mouse P-gp (Mus musculus, UniProt P21447); test: in vivo; settings: C57BL/6, mouse
[6] = test system: human P-gp (hMDR1); test: in vivo; settings: hMDR1 (MDR1 humanized), mouse
[7] = test system: human P-gp (hMDR1); settings: digoxin 1 mg/kg s.c.; blocker one hour before digoxin
Description: as §1

[8] = biological target: T1, P-gp; settings: C57BL/6 WT mice, oxycodone 1 mg/kg s.c., cyclosporine A 100 mg/kg i.p., verapamil 3 mg/kg s.c. or elacridar 6 mg/kg s.c. one hour before
Description: Brain and liver were sampled after sacrificing the animal.
as §1

[9] = test system: P-gp; set-up: method as in PMID 16850390; settings: cited from earlier work
[10] = test system: P-gp; settings: rats; cited from earlier work
[11] = test system: P-gp; set-up: method as in PMID 19047468; settings: PET imaging; cited from earlier work
[12] = biological target: T1, P-gp; set-up: hMDR1 and C57BL/6 WT mice; from tissue; host or cells: blood-brain barrier (brain capillaries) of living male C57BL/6 WT mice; method as in PMID 7910522; settings: cited from earlier work
[13] = hMDR1 (MDR1 humanized), mouse, plasma

T1 sequence (P21447 whole entry): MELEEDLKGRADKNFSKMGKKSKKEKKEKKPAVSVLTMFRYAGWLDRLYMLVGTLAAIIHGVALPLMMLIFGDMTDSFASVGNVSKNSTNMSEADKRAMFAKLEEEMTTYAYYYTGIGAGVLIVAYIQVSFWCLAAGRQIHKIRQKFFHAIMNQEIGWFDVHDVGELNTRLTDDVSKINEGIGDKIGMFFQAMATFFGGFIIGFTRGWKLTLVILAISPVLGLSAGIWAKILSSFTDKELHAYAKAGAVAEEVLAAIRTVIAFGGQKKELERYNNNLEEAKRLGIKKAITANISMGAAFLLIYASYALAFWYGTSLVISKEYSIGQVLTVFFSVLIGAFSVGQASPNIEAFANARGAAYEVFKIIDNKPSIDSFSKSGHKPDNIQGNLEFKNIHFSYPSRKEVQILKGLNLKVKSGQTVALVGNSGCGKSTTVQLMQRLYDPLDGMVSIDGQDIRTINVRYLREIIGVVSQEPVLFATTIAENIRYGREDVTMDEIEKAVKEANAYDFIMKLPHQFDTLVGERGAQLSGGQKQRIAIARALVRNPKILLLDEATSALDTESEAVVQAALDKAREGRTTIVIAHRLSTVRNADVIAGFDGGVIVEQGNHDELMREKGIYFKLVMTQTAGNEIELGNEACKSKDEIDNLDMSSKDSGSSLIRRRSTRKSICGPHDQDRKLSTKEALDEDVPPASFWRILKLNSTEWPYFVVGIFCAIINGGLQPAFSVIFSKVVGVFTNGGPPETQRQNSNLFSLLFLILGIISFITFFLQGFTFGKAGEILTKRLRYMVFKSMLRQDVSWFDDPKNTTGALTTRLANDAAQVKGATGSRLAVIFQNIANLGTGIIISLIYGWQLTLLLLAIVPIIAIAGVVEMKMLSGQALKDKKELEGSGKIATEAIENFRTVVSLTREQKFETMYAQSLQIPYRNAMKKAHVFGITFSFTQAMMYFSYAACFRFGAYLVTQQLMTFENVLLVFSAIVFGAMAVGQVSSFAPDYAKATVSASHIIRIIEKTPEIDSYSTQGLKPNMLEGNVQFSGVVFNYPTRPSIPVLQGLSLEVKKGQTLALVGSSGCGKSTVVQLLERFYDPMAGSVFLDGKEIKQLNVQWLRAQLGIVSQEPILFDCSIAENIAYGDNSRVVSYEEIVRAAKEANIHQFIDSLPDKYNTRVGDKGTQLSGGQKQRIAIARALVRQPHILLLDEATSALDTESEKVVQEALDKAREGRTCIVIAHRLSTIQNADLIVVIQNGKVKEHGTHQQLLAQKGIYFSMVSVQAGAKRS
Chain of mouse P-gp (P21447 whole entry): as above

With `C[C@H]1O[C@@H](O[C@H]2[C@@H](O)C[C@H](O[C@H]3[C@@H](O)C[C@H](O[C@H]4CC[C@@]5(C)[C@H](CC[C@@H]6[C@@H]5C[C@@H](O)[C@]5(C)[C@@H](C7=CC(=O)OC7)CC[C@]65O)C4)O[C@@H]3C)O[C@@H]2C)C[C@H](O)[C@@H]1O` [Digoxin] as the compound, how does the fraction unbound ([1]; C57BL/6, mouse, plasma) read?
Its fraction unbound is 0.594.

And the fraction unbound [1, 13]?
Its fraction unbound is 0.607.

Which fraction unbound ([1]; C57BL/6, mouse, plasma) does the source give for `CC(=O)O[C@@]12CO[C@@H]1C[C@H](O)[C@@]1(C)C(=O)[C@H](O)C3=C(C)[C@@H](OC(=O)[C@H](O)[C@@H](NC(=O)OC(C)(C)C)c4ccccc4)C[C@@](O)([C@@H](OC(=O)c4ccccc4)[C@H]21)C3(C)C` [Docetaxel] here?
The fraction unbound was 0.053.

What about the fraction unbound [1, 13] of the same compound?
Its fraction unbound is 0.052.

And the “Kp in hMDR1 mice relative to C57BL/6 WT mice” value [2]?
Its value is 2 times.

What about the “Kp in Mdr1a/1b(-/-) mice relative to FVB WT controls” value [3] of the same compound?
The value was 4 times.

And the “Vu, brain” value [4]?
Its value is 789 ml/g_brain.

And the “Vu, brain (nonspecific binding to brain parenchymal tissue)” value [4]?
Its value is 789 ml*g_brain^-1.

What about the Kp uu at 1 h [5] of the same compound?
The Kp uu at 1 h was 0.002.

And the Kp uu at 1 h [6]?
Its Kp uu at 1 h is 0.003.

Which “Digoxin Kp in hMDR1 mice compared to C57BL/6 WT controls when treated with the blocker” value [7] does the source give for `COc1cc2c(cc1OC)CN(CCc1ccc(NC(=O)c3cccc4c(=O)c5cccc(OC)c5[nH]c34)cc1)CC2` [Elacridar] here?
The value was “significantly higher”.

What about the “Effect of the P-gp blocker on oxycodone Kp” value [8] of the same compound?
Its value is “not changed”.

And the “Effect of the P-gp blocker on oxycodone Kp” value ([8]; listed as elacridar (GF120918))?
Its value is “no effect”.

And the “Blood concentration needed in guinea pigs to obtain the same inhibition as in rats and mice” value [9]?
Its value is “higher blood concentration”.

For `COc1ccc2c3c1O[C@H]1C(=O)CC[C@@]4(O)[C@@H](C2)N(C)CC[C@]314` [Oxycodone], which fraction unbound ([1]; C57BL/6, mouse) is on record?
Its fraction unbound is 0.681.

And the fraction unbound ([1]; hMDR1 (MDR1 humanized), mouse)?
The fraction unbound was 0.681.

With `C/C=C/C[C@@H](C)C(=O)[C@H]1C(=O)N[C@@H](C(C)C)C(=O)N(C)CC(=O)N(C)[C@@H](CC(C)C)C(=O)N[C@@H](C(C)C)C(=O)N(C)[C@@H](CC(C)C)C(=O)N[C@@H](C)C(=O)N[C@H](C)C(=O)N(C)[C@@H](CC(C)C)C(=O)N(C)[C@@H](CC(C)C)C(=O)N(C)[C@@H](C(C)C)C(=O)N1C` [PSC833] as the compound, how does the “Effect of the P-gp blocker on the tail-flick latency of oxycodone” value [10] read?
Its value is “no effect”.

With `C=C[C@H]1C[N@@]2CC[C@H]1C[C@@H]2[C@@H](O)c1ccnc2ccc(OC)cc12` [Quinidine, Quinidine gluconate] as the compound, how does the “Digoxin Kp in hMDR1 mice compared to C57BL/6 WT controls when treated with the blocker” value [7] read?
The value was “significantly higher”.

For `O=C(c1ccc([18F])cc1)C1CCN(CCn2c(=S)[nH]c3ccccc3c2=O)CC1` [[18F]altanserine], which “Brain penetration in humans relative to rodents” value [11] is on record?
Its value is 4.5 times.

Which “Sensitivity of Mdr1a(-/-) mice compared to wild type controls” value [12] does the source give for `CC[C@]1(O)C[C@@H]2CN(CCc3c([nH]c4ccccc34)[C@@](C(=O)OC)(c3cc4c(cc3OC)N(C)[C@H]3[C@@](O)(C(=O)OC)[C@H](OC(C)=O)[C@]5(CC)C=CCN6CC[C@]43[C@@H]65)C2)C1` [vinblastine] here?
The value was 3 fold.

From article PMC4416786, “Validation of a P-Glycoprotein (P-gp) Humanized Mouse Model by Integrating Selective Absolute Quantification of Human MDR1, Mouse Mdr1a and Mdr1b Protein Expressions with In Vivo Functional Analysis for Blood-Brain Barrier Transport” (PLoS ONE, 2015)
